Source: US7268212B2, “Ligand of G protein-coupled receptor protein and DNA thereof” (Takeda Pharmaceutical Company Limited, priority 2001, dated 2007)
No end group written: not given here.

Assays:
Wistar male rats = assay: Effect of GPR7 ligand on feed uptake in rat by lateral ventricular injection; type: in vivo; settings: 10 nmols/rat into the lateral ventricle; from 2 hours after the administration; compared to the control group (distilled water)
Procedure: The effect of GPR7 ligand (GPR7L) on feed uptake in rat by lateral ventricular injection was examined. Rat was caged at room temperature of 25° C. while lighting for 8 to 20 o'clock. Mature Wistar male rats (300-320 g body weight upon surgery) were anesthetized with an intraperitoneal injection of 50 mg/kg pentobarbital and placed in a rat brain stereotaxic instrument. The level of incisor bar was 3.3 mm below the interaural line. The skull was exposed, and using a dental drill a hole was made on the bone for implantation of guide cannula AG-8 (inner diameter of 0.4 mm, outer diameter of 0.5 mm, EICOM Corporation). In addition, an anchor screw was buried at 3 positions around the hole. A stainless-steel guide cannula, AG-8, was inserted in such a manner that the tip was situated at the upper part of the lateral ventricle. Stereotaxic coordinates were taken from the atlas according to the atlas of Paxinos & Watson (1986) from bregma AP: −0.8 mm, L:1.5 mm and H:−4.5 mm. The guide cannula was secured to the skull using a dental cement and an anchor screw. […]
After the guide cannula was implanted, rats were caged for about a week to recover from surgical operation. […] The infusion was continued from 19:00 to 20:00 o'clock, and the feed uptake thereafter was measured with passage of time, using a feed uptake measuring device Feed-Scale (Columbus, Inc.).

bovine GPR7 = target: T1, bovine GPR7 (Bos taurus, UniProt Q8MJV3); assay: Intracellular cAMP production suppression activity on bovine GPR7-expressed CHO cells; type: cell-based; settings: forskolin-promoted cAMP production; receptor-expressed CHO cells; read-out: IC50 (nM) bovine GPR7, cAMP production inhibition
T1 construct: expressed in transfected cells; host or cells: CHO cells
T1 sequence (Q8MJV3 1-331): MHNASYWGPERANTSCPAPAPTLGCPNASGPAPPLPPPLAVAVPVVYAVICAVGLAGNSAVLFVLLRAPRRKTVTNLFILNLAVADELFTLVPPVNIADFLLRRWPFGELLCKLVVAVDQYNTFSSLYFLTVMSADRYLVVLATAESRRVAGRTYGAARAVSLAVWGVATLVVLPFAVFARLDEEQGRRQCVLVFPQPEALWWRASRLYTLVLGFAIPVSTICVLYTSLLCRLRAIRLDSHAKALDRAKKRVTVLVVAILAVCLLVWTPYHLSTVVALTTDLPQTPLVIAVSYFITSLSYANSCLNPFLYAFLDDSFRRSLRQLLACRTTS
Procedure: The intracellular cAMP production suppression activity of peptides associated with various GPR7 ligands on CHO cells, in which human GPR7, bovine GPR8, human GPR8, human GPR8, bovine GPR8 and rat GPR7 were expressed, was examined. […] An assay buffer was prepared by adding 20 mM HEPES, pH7.4, 0.1% bovine serum albumin and 0.2 mM 3-isobutyl-1-methylxanthine (Sigma) to Hanks' Balanced Salt Solution (Gibco BRL). The plate incubated overnight was first washed twice with 150 μl of the assay buffer, and then exchanged with 150 μl of the assay buffer, followed by incubation for 30 minutes at 37° C. in 100% air. By adding 4 μM forskolin to the assay buffer, a buffer for sample dilution was prepared and the stock solution (10^−2 M of 10^−3 M) was diluted with the buffer thus obtained to prepare sample solutions in final concentrations of 10^−6 M, 10^−7 M, 10^−8 M, 10^−9 M and 10^−10 M. The plate incubated with the assay buffer for 30 minutes was taken out. After washing twice with the assay buffer, 50 μl of the assay buffer and then 50 μl of the sample solution were added thereto. Each sample was assayed in triplet. […] A difference between the maximum cAMP level and the cAMP level when each sample was added was calculated and the percentage of cAMP production level promoted by forskolin was worked out, which was made the cAMP production inhibition rate.

IC50 (bovine GPR7): 1.2 nM
Sequence: WYKPTAGQGYYSVGRAAGLLSGFHRSPYA [Trp1-bovine GPR7L(29)]
feed uptake (Wistar male rats): significant increase in feed uptake
